Test results from US20100021931A1, “Fluorescence based reporter construct for the direct detection of TGF-beta receptor activation and modulators thereof” (Technische Universitat Dresden, priority 2008, published 2010).

Assays:
[1] = test system: homozygous tkv mutants; test: Rescue of tkv mutant flies by the ubiquitin-promoter reporter transgene; assay type: in vivo, Drosophila; conditions: expressed from the ubiquitin promoter in transgenic flies
Source text: Using P-element mediated transgenesis with the plasmids described above transgenic fly lines were generated in a w^1118 background expressing the TIPF fusion protein under control of the ubiquitously expressed Ubiquitin promoter or in a tissue specific manner from the UAS promotor. For both transgenic construct insertions on all three major chromosomes were obtained. Insertions on the X chromosome were balanced with FM6 w^−, 2nd chromosome insertion were balanced with CyO and 3rd chromosomal insertions with TM3, Sb.

[2] = test system: phosphorylated Smad1/5 transcription factors; test: phospho-SMAD1/5/8 antibody staining of fixed embryos; assay type: in vivo, Danio rerio; conditions: 30% epiboly
Source text: While at that stage there is not yet a morphological marker for the prospective dorsal or ventral sides of the embryo, BMP pathway activation can be detected by accumulation of phosphorylated Smad1/5 transcription factors in the prospective ventral nuclei. […] As shown in FIG. 3 (top), fluorescence of the TIPF reporter (left) coincides with the region of increased pSmad staining (center).

[3] = test system: zebrafish BMP receptor ALK3; test: Zebrafish ALK3 reporter in zebrafish assays according to example 1; assay type: in vivo; conditions: assays as in example 1
Source text: To generate the zebrafish ALK3 reporter construct, the Tkv CDS was excised from the TIPF reporter (as constructed in example 1) with PstI and EcoRI to obtain the linearized expression vector without the TGF-beta receptor according to SEQ ID No. 22. In this vector the corresponding full length cDNA encoding the zebrafish ALK3 according to SEQ ID No. 2 was cloned, which was amplified from a custom cDNA library using primers carrying EcoRI (5′primer) and NsiI (3′primer).
Zebrafish assays were performed according to example 1.

Chain of zebrafish BMP receptor ALK3 (as listed by the source): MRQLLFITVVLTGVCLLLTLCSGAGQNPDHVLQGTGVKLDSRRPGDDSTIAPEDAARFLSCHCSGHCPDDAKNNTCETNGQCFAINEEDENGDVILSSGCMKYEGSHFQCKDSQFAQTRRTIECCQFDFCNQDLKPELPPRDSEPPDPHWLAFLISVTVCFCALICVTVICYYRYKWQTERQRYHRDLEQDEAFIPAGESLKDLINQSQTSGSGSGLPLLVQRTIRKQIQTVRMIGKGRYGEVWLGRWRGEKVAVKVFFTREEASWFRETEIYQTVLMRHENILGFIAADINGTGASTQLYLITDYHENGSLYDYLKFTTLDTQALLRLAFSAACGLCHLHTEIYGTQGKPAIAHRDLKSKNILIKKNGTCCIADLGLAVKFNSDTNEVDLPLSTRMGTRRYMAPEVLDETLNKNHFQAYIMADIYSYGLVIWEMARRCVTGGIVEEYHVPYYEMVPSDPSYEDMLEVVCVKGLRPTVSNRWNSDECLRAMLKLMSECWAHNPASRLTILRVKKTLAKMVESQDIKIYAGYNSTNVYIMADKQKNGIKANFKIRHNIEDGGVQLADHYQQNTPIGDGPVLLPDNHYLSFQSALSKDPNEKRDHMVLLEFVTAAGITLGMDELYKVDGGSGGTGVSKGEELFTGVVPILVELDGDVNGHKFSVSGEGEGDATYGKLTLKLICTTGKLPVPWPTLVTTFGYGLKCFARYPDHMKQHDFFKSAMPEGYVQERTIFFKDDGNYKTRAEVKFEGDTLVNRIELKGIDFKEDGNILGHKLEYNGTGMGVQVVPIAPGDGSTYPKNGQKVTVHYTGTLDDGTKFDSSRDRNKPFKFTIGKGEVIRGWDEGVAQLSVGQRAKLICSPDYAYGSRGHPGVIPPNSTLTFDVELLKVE

Substance	rescue of lethality of homozygous tkv mutants [1]	reporter fluorescence versus region of phospho-Smad staining [2]	behaviour of reporter in zebrafish assays [3]
TIPF reporter: fusion protein of Drosophila Tkv, an inverse pericam core and Drosophila FKBP12 linked by short linkers	rescue the lethality associated with homozygous tkv mutants to full adult survival	coincided with the region of BMP pathway activation	
zebrafish ALK3 reporter: Inverse Pericam core and Drosophila FKBP12 cassette fused to the zebrafish BMP receptor ALK3			behaved like the fly version used in example 1
